# According to patent publication US4666897A, “Inhibition of mammalian collagenolytic enzymes by tetracyclines” (Research Foundation of State University, priority 1983, dated 1987):
# Tests used:
# [1] = during a therapeutic regimen; cited from earlier work
# [2] = test system: conventional diabetic rats; experiment: Gingival collagenolytic activity, alveolar bone loss, skin collagen and crevicular microflora in conventional streptozotocin-diabetic rats; format: in vivo, rat; conditions: 20 mg per day by gavage
# Description: Five month old (mean weight, 445g) male Sprague Dawley rats were made diabetic by I.V. injection of streptozotocin (70 mg/kg body weight), after a 12 hour fasting period, (as described by Golub, et al., Biochim. Biophys. Acta., 534, 73-81 (1978) and Golub, et al., Infect. Immun., 37, 1013-1020 (1982). Age matched uninjected rats served as controls. Some of the diabetic rats received the tetracycline, minocycline (20 mg. Minocin® per day; Lederle Laboratories, Pearl River, N.Y.), by gavage on a daily basis beginning 3 days after diabetes is induced. After a 25 day experimental period, blood samples were taken for glucose analysis, and subgingival plaque samples were taken for assessment of the microflora in the region (McNamara, et. al., Archs. Oral. Biol., 27, 217-223 (1982)). The animals were then sacrificed, gingival samples were taken for tissue culture and the jaw bones dissected.
# Alveolar bone loss was assessed in the right and left mandibles of both the conventional and germfree rats (control and diabetic) using a modification of a previously described technique (Stralfors, et.al, Archs. Oral. Biol., 12, 1213-1216 (1967); Heijl, et. al., J. Periodontal Res., 15, 405-419 (1980)). The mandibles were defleshed (autoclaving followed by soaking in 2N NaOH for 2-3 h), dried, and the distance (expressed as units; 1 unit=0.05 mm) between the cementoenamel junction (CEJ) and the crest of the alveolar bone is measured in the long axis of the root surface at 10 specified sites on lingual surfaces of the 3 molar teeth (see Crawford, et.al., J. Periodontal Res., 13, 316-325 (1978)) using an eye-piece micrometer in a dissecting microscope (20× magnification).
# The techniques used were those described by Schneir and Golub, (Streptozotocin: Fundamentals and Therapy (Ed. M. K. Agarwal, Elsevier/North-Holland Biomed Press, Chapter 12, pp 161-182, (1981)). […]
# [3] = test system: GCF collagenase and gingival disease in non-diabetic male; experiment: Human GCF study, non-diabetic; format: in vivo
# Description: In a separate study involving humans, gingival crevicular fluid (GCF) samples were collected on filter paper strips inserted into 8 interproximal pockets of selected teeth in the maxillary arch of two twin brothers with juvenile-onset (insulin-dependent) diabetes mellitus. Fluid volume was immediately determined on a modified Periotron (Model 6000, Harco Electronics Ltd., Winnipeg, Canada); then incubated with 10 μl (^3 H-methyl) collagen (20,675 DPM) and 70 μl buffer (50 mM Tris-HCl, pH 7.8, containing 0.2 M sodium chloride and 5 mM calcium chloride). The GCF samples (or reagent blanks or trypsin controls) were incubated at 27° C. for 18 hours with gentle shaking. The reaction was stopped and undigested collagen precipitated by adding 10 μl 0.1 M phenanthroline in dioxane/water (1:1, v/v), 10 μl of nonradioactive methylated carrier collagen (2 mg/ml) in 50 mM Tris-HCl buffer containing 1M NaCl (pH 7.0), and 100 μl dioxane. After mixing, the radiolabeled collagen degradation products were collected by filtration and counted in a liquid scintillation spectrometer (Golub, et. al., 1976, J. Dent. Res., 55, 1049). Using this technique, the reaction blank (no enzyme or GCF added) released about 10% of the total substrate counts; 2-20 ng bacterial collagenase produced a linear increase in the release of radioactive counts from the ^3 H-collagen substrate (the 20 ng level of enzyme degraded 60% of the collagen substrate); and 50 ng trypsin released less than 1% of the counts above blank values. GCF collagenase activity was expressed as units of equivalent activity of vertebrate collagenase (obtained from New England Nuclear, Cat. No. NEK-016); 1 unit was operationally defined as the amount of enzyme that degrades 1 μg of collagen per hour at 27° C.
# […] PD=4.2 mm±0.3), and GCF collagenolytic activity was measured as described above. […] Two additional GCF samples were collected from the same 4 mm pocket, in this patient, before and after minocycline therapy. These samples were incubated with 10 μl ^3 H-collagen for 18 hours (22° C.), then thermally denatured and the collagen subunits and collagenase digestion products were separated by SDS-polyacrylamide gel electrophoresis (Nicoll, et. al., Experientia., 37, 315-317 (1981)). The gels were processed for fluorography (see Sodek, et. al., J. Periodontal. Res., 16, 425-433 (1981)) and exposed to Kodak X A R-5 film for 3 days.
# [4] = test system: germfree diabetic rats; experiment: Gingival collagenolytic activity, bone loss and skin collagen in germ-free streptozotocin-diabetic rats; format: in vivo, rat
# Description: At this time (6 weeks after purchase), diabetes was induced in some of the animals, as described above in a), and the control and diabetic animals maintained under germfree conditions for an additional 6 weeks prior to sacrifice. […] Blood and tissues were then obtained to assess gingival collagenolytic enzyme activity and the loss of skin collagen and bone. The results are set forth below and illustrated in FIG. II. Alveolar bone loss was assessed in the right and left mandibles of both the conventional and germfree rats (control and diabetic) using a modification of a previously described technique (Stralfors, et.al, Archs. Oral. Biol., 12, 1213-1216 (1967); Heijl, et. al., J. […] Periodontal Res., 13, 316-325 (1978)) using an eye-piece micrometer in a dissecting microscope (20× magnification). Because uncontrolled diabetes in the rat results in the massive resorption of skin collagen associated with increased collagenase activity in this tissue, the collagen content of entire skins from the germfree and from the conventional control and diabetic rats, including those treated with minocycline was measured. The techniques used were those described by […] and Golub, (Streptozotocin: Fundamentals and Therapy (Ed. M. K. Agarwal, Elsevier/North-Holland Biomed Press, Chapter 12, pp 161-182, (1981)). The techniques used to measure the collagenolytic enzyme activity of gingival tissue in culture, and in polymorphonuclear leucocytes (PMNLs), are those described by Golub, et. al., (J. Dent. Res., 57, 520-525 (197)8) and Nicoll, et. al., (Experimentia, 37, 315-317, (1981)) with minor modifications.
# [5] = GCF from the same 4 mm pocket before and after therapy
compound,measurement,setting,value
"CN(C)c1ccc(O)c2c1C[C@H]1C[C@H]3[C@H](N(C)C)C(O)=C(C(N)=O)C(=O)[C@@]3(O)C(O)=C1C2=O [minocycline, Minocycline]",concentration in human serum,[1],approximately 2 ug/ml
same,concentration in the gingival crevicular fluid relative to serum,[1],4-5 times greater
same,Gram-negative microflora in the gingival crevices,[2],eliminated detectable signs
same,alveolar bone loss in the interproximal region,[2],completely reversed
same,reduction of gingival collagenolytic activity (tissue culture),[2]; 25 day experimental period,62%
same,densitometric analysis of fluorographs: degradation products,[3]; GCF before and after therapy,reduced the percentage of the total radiolabeled collagenous material present as degradation products
same,breakdown of intact ^3 H-collagen by GCF (SDS-PAGE fluorography),[3]; [5],reduced the breakdown of the intact collagen
same,production of α^A and α^B collagen digestion fragments by GCF (fluorography),[3]; [5],inhibited the production
same,pocket depth,[3]; non-diabetic patient two,essentially unchanged
same,reduction of G. I.,[3]; non-diabetic patient two,26%
same,reduction of GCF flow,[3]; non-diabetic patient two,71%
same,reduction of trypsin-activated collagenase in GCF,[3]; non-diabetic patient two,59%
same,reduction of active collagenase in GCF,"[3]; non-diabetic patient two, minocycline therapy as in (a)",86%
same,increase of skin collagen levels,"[4]; germ-free diabetic rats, 20 mg/day for the last 4 weeks, versus untreated diabetics",45%
same,bone levels,"[4]; germfree control, diabetic and minocycline-treated diabetic rats",no differences
same,reduction of gingival collagenolytic activity (tissue culture),"[4]; germfree diabetic rats, 20 mg/day by gavage for the last 4 weeks",70%
